Read-outs that look alike come from different tables or passages of the source.

For experiment [1], the system named is endogenous NAMPT in U2OS cells. The experiment can be described thus: Cellular NAD+ modulation assay (NAD/NADH-Glo, U2OS cells). It counts as cell-based. The settings on record: Homo sapiens; for maximal fold induction: read-out: Cellular Emax. The method in brief:
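Endogenous NAMPT stimulation in U2OS cells treated with compound dilution series for 24 h at 37 °C. Cells lysed with DTAB base, acid-treated 15 min at 60 °C, neutralized, NAD+ read by NAD/NADH-Glo luminescence after 40 min at room temperature. EC50 and Emax (fold over DMSO) derived.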

The target of experiment [2] is T1, human enzyme NAMPT (full length) (Homo sapiens, UniProt P43490).
T1 construct: human enzyme NAMPT (full length)
In words: NMN fluorescence biochemical assay (stimulation of NMN synthesis by NAMPT). The settings on record: for EC50: concentration giving half-maximal activation, read-out: Enzymatic EC50; for Enzymatic Emax: fold change of maximal activation compared to DMSO. Put shortly:
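Full-length human NAMPT (100 nM) was preincubated 15 min at 37 °C with compound in 50 mM Tris-HCl pH 7.5, 10 mM MgCl2, 2 mM DTT, then reacted 1 h at 37 °C with 50 μM NAM, 100 μM PRPP, 4 mM ATP (stated solution concentrations). NMN was derivatised with acetophenone/KOH then formic acid and read at Ex/Em 382/445 nm; EC50 and Emax (fold over DMSO) reported.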

[3] abbreviates: 24 hours incubation with compound.
The mark [4] stands for this setting: NMN synthesis by purified human NAMPT (100 nM).
The mark [5] stands for this setting: 24 hours incubation, cellular NAD+.
Setting [6] is: NMN fluorescence assay, purified human NAMPT 100 nM.

T1 sequence (P43490 whole entry): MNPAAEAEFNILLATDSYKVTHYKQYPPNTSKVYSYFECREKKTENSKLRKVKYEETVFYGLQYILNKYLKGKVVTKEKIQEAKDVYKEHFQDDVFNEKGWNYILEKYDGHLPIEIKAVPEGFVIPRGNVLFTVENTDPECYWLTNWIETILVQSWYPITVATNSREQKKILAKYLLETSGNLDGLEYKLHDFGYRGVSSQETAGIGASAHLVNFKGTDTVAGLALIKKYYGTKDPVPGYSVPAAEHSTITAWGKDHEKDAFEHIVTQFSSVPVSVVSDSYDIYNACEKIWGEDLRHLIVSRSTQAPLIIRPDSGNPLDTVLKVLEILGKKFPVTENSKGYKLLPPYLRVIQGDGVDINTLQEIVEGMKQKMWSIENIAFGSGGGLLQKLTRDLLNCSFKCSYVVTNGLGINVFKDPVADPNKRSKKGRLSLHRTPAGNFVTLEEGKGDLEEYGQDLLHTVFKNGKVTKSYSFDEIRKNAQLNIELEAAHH

One may read the EC50 as the concentration giving half of the maximal effect. `CC(C)c1ccc2c(c1)C(=O)N(Cc1ccc(O)cc1)C2=O` [Compound 26, 2-(4-hydroxybenzyl)-5-isopropylisoindoline-1,3-dione]: in experiment [1] (setting [3]), the EC50 was below 500 nM and the maximal fold induction was at most 1.2. Moreover, the EC50 in experiment [2] (setting [4]) was 500 to 5000 nM. The “Enzymatic Emax” value in experiment [2] is given as “A (A>3)”.
Taken in the same sequence, the figures for `CCC1c2ccccc2C(=O)N1Cc1ccc2[nH]c(=O)oc2c1` (stereo not shown) [Compound 53, 6-((1-ethyl-3-oxoisoindolin-2-yl)methyl) benzo[d]oxazol-2(3H)-one] were 5000 to 50000 nM, 1.2 to 1.5, at least 5000 nM and “B (3≥B>2)”.
For the compound `Cn1ncc(Cl)c1CC1c2ccccc2C(=S)N1CC1CC2(CNC(=O)O2)C1` (stereo not shown) [Compound 482, 2-((1-((4-chloro-1-methyl-1H-pyrazol-5-yl)methyl)-3-thioxoisoindolin-2-yl)methyl)-5-oxa-7-azaspiro[3.4]octan-6-one], in experiment [1] (setting [5]), the EC50 was below 500 nM and the maximal fold induction was above 1.5. Moreover, the EC50 in experiment [2] (setting [6]) is below 500 nM. In addition, the “Enzymatic Emax” value in experiment [2] is given as “B (3≥B>2)”.
For `Cn1nc(CN2CCOCC2)c(Cl)c1CC1c2ccccc2C(=O)N1CC1CC2(CNC(=O)O2)C1` (stereo not shown) [Compound 522, 2-((1-((4-chloro-1-methyl-3-(morpholinomethyl)-1H-pyrazol-5-yl)methyl)-3-oxoisoindolin-2-yl)methyl)-5-oxa-7-azaspiro[3.4]octan-6-one], in experiment [1] (setting [5]), the EC50 is 500 to 5000 nM and the maximal fold induction was above 1.5. Besides, in experiment [2] (setting [6]), the EC50 was in the range of 500 to 5000 nM. For the same compound, the “Enzymatic Emax” value in experiment [2] is listed as “B (3≥B>2)”.
As to `[2H]C([2H])(c1c(Cl)cnn1C)C1c2ccccc2C(C)(C)N1CC1CC2(CNC(=O)O2)C1` (stereo not shown) [Compound 616, 2-((3-((4-chloro-1-methyl-1H-pyrazol-5-yl)methyl-d2)-1,1-dimethylisoindolin-2-yl)methyl)-5-oxa-7-azaspiro[3.4]octan-6-one], the EC50 in experiment [1] (setting [5]) was below 500 nM; in experiment [2] (setting [6]) it was 500 to 5000 nM. In experiment [1] (setting [5]), the maximal fold induction is 1.2 to 1.5. Besides, the “Enzymatic Emax” value in experiment [2] is given as “A (A>3)”.
On the same counts, the results for `COc1ccc(CN2C(=O)c3ccccc3C2Cc2c(Cl)ccc(=O)n2C)cn1` (stereo not shown) [Compound 609, 3-((3-chloro-1-methyl-6-oxo-1,6-dihydropyridin-2-yl)methyl)-2-((6-methoxypyridin-3-yl)methyl)isoindolin-1-one] are 500 to 5000 nM, 500 to 5000 nM, above 1.5 and “B (3≥B>2)”.
On to `N#Cc1cccc(F)c1CC1c2ccccc2C(=O)N1Cc1ccc2[nH]c(=O)oc2c1` (stereo not shown) [Compound 170, 3-fluoro-2-((3-oxo-2-((2-oxo-2,3-dihydrobenzo[d]oxazol-6-yl)methyl)isoindolin-1-yl)methyl)benzonitrile], for which the EC50 in experiment [1] (setting [3]) and in experiment [2] (setting [4]) was below 500 nM each time. In experiment [1] (setting [3]), the maximal fold induction was above 1.5. Further, the “Enzymatic Emax” value in experiment [2] is reported as “A (A>3)”.
Turning to `O=C1c2ccccc2CN1Cc1ccc2[nH]nnc2c1` [Compound 289, 2-((1H-benzo[d][1,2,3]triazol-5-yl)methyl)isoindolin-1-one], in experiment [1] (setting [3]), the EC50 lay within 5000 to 50000 nM and the maximal fold induction was 1.2 to 1.5. Further, the EC50 in experiment [2] (setting [4]) was at least 5000 nM. Moreover, in experiment [2], the “Enzymatic Emax” value is “C (2≥C)”.
With `Cn1ncc(Cl)c1CC1c2ccccc2C(=O)N1Cc1cnc(O)o1` (stereo not shown) [Compound 605, 3-((4-chloro-1-methyl-1H-pyrazol-5-yl)methyl)-2-((2-hydroxyoxazol-5-yl)methyl)isoindolin-1-one], the results for the EC50 in experiment [1] (setting [5]) and in experiment [2] (setting [6]) were below 500 nM and 500 to 5000 nM, respectively. Besides, the maximal fold induction in experiment [1] (setting [5]) was above 1.5. The “Enzymatic Emax” value in experiment [2] was “A (A>3)”.
As to `Cc1ccccc1CC1c2ccncc2C(=O)N1Cc1ccc2[nH]c(=O)oc2c1` (stereo not shown) [Compound 168, 6-((1-(2-methylbenzyl)-3-oxo-1,3-dihydro-2H-pyrrolo[3,4-c]pyridin-2-yl)methyl)benzo[d]oxazol-2(3H)-one], in experiment [1] (setting [3]), the EC50 lay in the range of 500 to 5000 nM and the maximal fold induction was above 1.5. The EC50 in experiment [2] (setting [4]) is 500 to 5000 nM. In addition, the “Enzymatic Emax” value in experiment [2] is on record as “A (A>3)”.
As for `Cc1ccc2c(c1)C(Cc1c(Cl)cnn1C)N(CC1CC3(CNC(=O)O3)C1)C2=O` (stereo not shown) [Compound 485, 2-((3-((4-chloro-1-methyl-1H-pyrazol-5-yl)methyl)-5-methyl-1-oxoisoindolin-2-yl)methyl)-5-oxa-7-azaspiro[3.4]octan-6-one], in experiment [1] (setting [5]), the EC50 was below 500 nM and the maximal fold induction was above 1.5. In addition, in experiment [2] (setting [6]), the EC50 was in the range of 500 to 5000 nM. For the same compound, the “Enzymatic Emax” value in experiment [2] is “B (3≥B>2)”.
For the compound `O=C1c2ccccc2C(Cc2ncccc2Br)N1C/C=C/c1cn[nH]c1` (stereo not shown) [Compound 423, (E)-2-(3-(1H-pyrazol-4-yl)allyl)-3-((3-bromopyridin-2-yl)methyl)isoindolin-1-one], in experiment [1] (setting [5]), the EC50 was below 500 nM and the maximal fold induction is above 1.5. Also, the EC50 in experiment [2] (setting [6]) is below 500 nM. Also, in experiment [2], the “Enzymatic Emax” value is on record as “B (3≥B>2)”.
For the compound `Cn1cc(Cl)c(CC2c3ccccc3C(=O)N2Cc2ccc3[nH]c(=O)oc3c2)n1` (stereo not shown) [Compound 232, 6-((1-((4-chloro-1-methyl-1H-pyrazol-3-yl)methyl)-3-oxoisoindolin-2-yl)methyl)benzo[d]oxazol-2(3H)-one], in experiment [1] (setting [3]), the EC50 is below 500 nM and the maximal fold induction is above 1.5. The EC50 in experiment [2] (setting [4]) is below 500 nM. For the same compound, the “Enzymatic Emax” value in experiment [2] is on record as “A (A>3)”.
As to `O=c1ccc2ccccc2n1Cc1ccc(O)cc1` [Compound 5, 1-(4-hydroxybenzyl)quinolin-2(1H)-one], in experiment [1] (setting [3]), the EC50 lay in the range of 500 to 5000 nM and the maximal fold induction was in the range of 1.2 to 1.5. The EC50 in experiment [2] (setting [4]) is at least 5000 nM. Further, the “Enzymatic Emax” value in experiment [2] is recorded as “A (A>3)”.
In the case of `O=C1c2ccccc2C(Cc2ncccc2Br)N1CC1CCc2[nH]c(=O)oc2C1` (stereo not shown) [Compound 400, 6-((1-((3-bromopyridin-2-yl)methyl)-3-oxoisoindolin-2-yl)methyl)-4,5,6,7-tetrahydrobenzo[d]oxazol-2(3H)-one], in experiment [1] (setting [5]), the EC50 is 500 to 5000 nM and the maximal fold induction is above 1.5. Further, in experiment [2] (setting [6]), the EC50 lay within 500 to 5000 nM. The “Enzymatic Emax” value in experiment [2] was “B (3≥B>2)”.
Turning to `COc1ccc(CN2C(=O)c3ccccc3C2Cc2c(Cl)cnn2C)cn1` (stereo not shown) [Compound 574, 3-((4-chloro-1-methyl-1H-pyrazol-5-yl)methyl)-2-((6-methoxypyridin-3-yl)methyl)isoindolin-1-one], the EC50 in experiment [1] (setting [5]) and in experiment [2] (setting [6]) was 500 to 5000 nM in each case. Moreover, the maximal fold induction in experiment [1] (setting [5]) is above 1.5. In addition, the “Enzymatic Emax” value in experiment [2] is given as “B (3≥B>2)”.
As for `Cc1c(CC2c3ccccc3C(=O)N2Cc2ccc3[nH]nnc3c2)c(C#N)nn1C` (stereo not shown) [Compound 393, 4-((2-((1H-benzo[d][1,2,3]triazol-5-yl)methyl)-3-oxoisoindolin-1-yl)methyl)-1,5-dimethyl-1H-pyrazole-3-carbonitrile], in experiment [1] (setting [5]), the EC50 is below 500 nM and the maximal fold induction is above 1.5. Moreover, the EC50 in experiment [2] (setting [6]) was below 500 nM. The “Enzymatic Emax” value in experiment [2] is on record as “B (3≥B>2)”.
As to `CC1c2cc(C3CC3)ccc2C(=O)N1Cc1ccc2[nH]c(=O)oc2c1` (stereo not shown) [Compound 125, 6-((5-cyclopropyl-3-methyl-1-oxoisoindolin-2-yl)methyl)benzo[d]oxazol-2(3H)-one], in experiment [1] (setting [3]), the concentration giving a half-maximal response (EC50) was 500 to 5000 nM and the maximal fold induction is above 1.5. Further, in experiment [2] (setting [4]), the EC50 is at least 5000 nM. In addition, in experiment [2], the “Enzymatic Emax” value is “A (A>3)”.
For `Cn1ncc(Cl)c1CC1c2ccccc2C(=O)N1Cc1ccc(O)nc1` (stereo not shown) [Compound 578, 3-[(4-chloro-2-methyl-pyrazol-3-yl)methyl]-2-[(6-hydroxy-3-pyridyl)methyl]isoindolin-1-one], in experiment [1] (setting [5]), the EC50 was in the range of 500 to 5000 nM and the maximal fold induction lay within 1.2 to 1.5. In addition, in experiment [2] (setting [6]), the EC50 was at least 5000 nM. Besides, the “Enzymatic Emax” value in experiment [2] is “B (3≥B>2)”.
Consider `Cc1ccccc1CC1c2ccccc2C(=O)N1Cc1ccc2[nH]c(=O)oc2c1` (stereo not shown) [Compound 124, 6-((1-(2-methylbenzyl)-3-oxoisoindolin-2-yl)methyl)benzo[d]oxazol-2(3H)-one], for which the EC50 in experiment [1] (setting [3]) is 500 to 5000 nM; in experiment [2] (setting [4]), below 500 nM. Besides, the maximal fold induction in experiment [1] (setting [3]) is above 1.5. Moreover, the “Enzymatic Emax” value in experiment [2] is listed as “A (A>3)”.
Turning to `CC1NC(=O)OC12CC(CN1C(=O)c3ccccc3C1Cc1ncccc1Br)C2` (stereo not shown) [Compound 395, 2-((1-((3-bromopyridin-2-yl)methyl)-3-oxoisoindolin-2-yl)methyl)-8-methyl-5-oxa-7-azaspiro[3.4]octan-6-one], in experiment [1] (setting [5]), the EC50 fell in the range of 500 to 5000 nM and the maximal fold induction is above 1.5. Also, the EC50 in experiment [2] (setting [6]) lay in the range of 500 to 5000 nM. Further, the “Enzymatic Emax” value in experiment [2] is reported as “C (2≥C)”.
Regarding `Cc1cccc2c1C(Cc1c(Cl)cnn1C)N(CC1CC3(CNC(=O)O3)C1)C2=O` (stereo not shown) [Compound 470, 2-((3-((4-chloro-1-methyl-1H-pyrazol-5-yl)methyl)-4-methyl-1-oxoisoindolin-2-yl)methyl)-5-oxa-7-azaspiro[3.4]octan-6-one], in experiment [1] (setting [5]), the EC50 fell in the range of 500 to 5000 nM and the maximal fold induction is above 1.5. Moreover, the EC50 in experiment [2] (setting [6]) is at least 5000 nM. Besides, the “Enzymatic Emax” value in experiment [2] is “B (3≥B>2)”.

For the origin of these results see patent US20260078130A1, “NAMPT MODULATORS, PREPARATIONS, AND USES THEREOF” (SIRONAX LTD., priority 2022, published 2026).
